Laboratory results taken from patent US5936097A, “4,9-ethano-benzo(F)isoindole derivatives as farnesyl transferase inhibitors” (Rhone-Poulenc Rorer, S.A., priority 1995, dated 1999).
Like-named read-outs stand apart in the source and are kept apart here.

Biological target: T1, human farnesyl transferase (Homo sapiens, UniProt P49354+P49356)
T1 construct: human farnesyl transferase purified from THP1 cell cultures; endogenous in cells; host or cells: THP1 cell cultures (enzyme purified from the cells)
Experiment: inhibition of farnesyl transferase ((3H) farnesyl transfer from (3H) FPP to p21 H-ras)
Format: biochemical
Method: Farnesyl transferase activity is determined by the amount of (^3 H) farnesyl transferred from (^3 H) farnesylpyrophosphate [(^3 H) FPP] to the p21 H-ras protein. The standard reaction mixture is composed, for a final volume of […], of 50 mM Tris-HCl, 5 mM MgCl2, 5 mM dithiotreitol, 0.2% octyl b-D-glucopyranoside, 200 picomol p21 H-ras, 4.5 picomol (^3 H) FPP (activity 61000 dpm/picomol).
Reaction is initiated by adding approximately 5 ng of human farnesyl transferase purified from THP1 cell cultures. After incubation for 20 minutes at 37° C. in a microtitration plate containing 96 1-cm^3 wells per plate (Titer Plate®, Beckman), the reaction is stopped by adding 0.4 cm^3 of 0.1% SDS in methanol at 0° C. The mixture is then treated with 0.4 cm^3 of 30% trichloroacetic® acid (TCA) in methanol. The plates are left in ice for 1 hour. The precipitated contents are then retained on Filtermat®, Pharmacia), glass® fibre membranes with the filtration unit (Combi Cell Harvester®, Skatron), and rinsed with 6% trichloroacetic acid in distilled water. The membranes are dried in a microwave oven, then impregnated with scintillation medium by melting of Meltilex® (Pharmacia) under hot air, and lastly counted in cpm in a b-Plate counter® (LKB). Each test is repeated 3 times.
The unit of activity is defined as 1 picomole of (^3 H) FPP transferred to p21 H-ras in 20 minutes.
The percentage inhibition values are obtained by comparison of the tests with and without inhibitor after deduction of blanks, the IC50 values being measured on the basis of the inhibitions obtained with 9 different concentrations using Enzfitter® or Grafit® software.

[1] = human farnesyl transferase purified from THP1 cell cultures, p21 H-ras substrate, 20 minutes at 37° C., 9 concentrations, read-out: in vitro inhibitory activity IC50

IC50 [1] [nM]	Structure (SMILES)	IC50 [nM]
	COc1ccccc1CC(=O)N1C[C@H]2[C@@]3(c4ccccc4)CC[C@H](c4ccccc43)[C@@]2(C(=O)O)C1 (relative stereo) [Example 2, (3aRS, 4SR, 9SR, 9aRS)-4,9-ethano-2-(2-methoxyphenyl)acetyl-9-phenyl-2,3,3a,4,9,9a-hexahydro-1H-benzo[f]isoindole-3a-carboxylic acid]	310
	O=C(Cc1ccccc1Br)N1C[C@H]2[C@@]3(c4ccccc4)CC[C@H](c4ccccc43)[C@@]2(C(=O)O)C1 (relative stereo) [Example 28, (3aRS, 4SR, 9SR, 9aRS)-4,9-ethano-2-(2-bromophenyl)acetyl-9-phenyl-2,3,3a,4,9,9a-hexahydro-1H-benzo[f]isoindole-3a-carboxylic acid]	3050
440	COc1ccccc1CC(=O)N1CC2C3(c4ccccc4)CCC(c4ccccc43)C2(C(=O)N[C@@H](CSCc2ccccc2)C(=O)O)C1 (stereo partly drawn) [Example 52, N-[(3aRS,4SR,9SR,9aRS)-4,9-ethano-2-(2-methoxyphenyl)acetyl-9-phenyl-2,3,3a,4,9,9a-hexahydro-1H-benzo[f]isoindol-3a-yl]carbonyl-S-benzyl-L-cysteine]	
	COc1ccccc1OC(=O)N1C[C@H]2[C@@]3(c4ccccc4)CC[C@H](c4ccccc43)[C@@]2(C(=O)O)C1 (relative stereo) [Example 27, (3aRS, 4SR, 9SR, 9aRS)-4,9-ethano-2-(2-methoxyphenyl)oxycarbonyl-9-phenyl-1,2,3,3a,9,9a-hexahydro-1H-benzo[f]isoindole-3a-carboxylic acid]	5800
3030	COc1ccccc1CC(=O)N1C[C@H]2[C@@]3(c4ccccc4)CC[C@H](c4ccccc43)[C@@]2(NC(=O)CC(=O)O)C1 (relative stereo) [Example 16, (3aRS, 4SR, 9SR, 9aRS)-4,9-ethano-3a-carboxylacetylamino-2-(2-methoxyphenyl)acetyl-9-phenyl-2,3,3a,4,9,9a-hexahydro-1H-benzo[f]isoindole]	
2150	O=C(Cc1c[nH]c2ccc(Br)cc12)N1C[C@@H]2[C@]3(c4ccccc4)CC[C@@H](c4ccccc43)[C@]2(C(=O)O)C1 (relative stereo) [Example 35, (3aRS, 4SR, 9SR, 9aRS)-4,9-ethano-2-(5-bromo-3-indolyl)acetyl-9-phenyl-2,3,3a,4,9,9a-hexahydro-1H-benzo [f]isoindole-3a-carboxylic acid]	
50	C=C(C(=O)N1C[C@H]2[C@@]3(c4ccccc4)CC[C@H](c4ccccc43)[C@@]2(C(=O)N[C@H](C(=O)O)c2ccccc2)C1)c1ccccc1OC [Example 81, N-[(3aS,4R,9R,9aS)-4,9-ethano-2-[(2-methoxy-phenyl)prop-2-en-1-oyl]-9-phenyl-2,3,3a,4,9,9a-hexahydro-1H-benzo[f]isoindol-3a-ylcarboxamide]-(S)-phenylglycine]	
3750	COc1ccccc1CC(=O)N1C[C@H]2[C@@]3(c4ccccc4)CC[C@H](c4ccccc43)[C@@]2(CC(=O)NC(CCSC)C(=O)O)C1 (stereo partly drawn) [Example 21, N-[(3aRS, 4SR, 9SR, 9aRS)-4,9-ethano-2-(2-methoxyphenyl)acetyl-9-phenyl-2,3,3a,4,9,9a-hexahydro-1H-benzo[f]isoindole-3a-yl]acetylmethionine]	
3950	COC(=O)[C@]12CN(C(=O)Cc3ccccc3OC)C[C@H]1[C@@]1(c3ccccc3)CC[C@@H]2c2cc(C=O)ccc21 (relative stereo) [Example 97, methyl ester of (3aRS,4SR,9SR,9aRS)-4,9-ethano-6-formyl-2-[(2-methoxyphenyl)acetyl]-9-phenyl-2,3,3a,4,9,9a-hexahydro-1H-benzo[f]isoindole-3a-carboxylic acid]	
	COC(=O)[C@]12CN(C(=O)Cc3ccccc3OC)C[C@H]1[C@@]1(c3ccccc3)CC[C@@H]2c2ccccc21 (relative stereo) [Example 1, methyl ester of (3aRS, 4SR, 9SR, 9aRS)-4,9-ethano-2-(2-methoxyphenyl)acetyl-9-phenyl-2,3,3a,4,9,9a-hexahydro-1H-benzo[f]isoindole-3a-carboxylic acid]	410
740	COc1ccccc1CC(=O)N1C[C@H]2[C@@]3(c4ccccc4)CC[C@H](c4ccccc43)[C@@]2(C(=O)NCC(=O)O)C1 [Example 48, N-[4,9-ethano-2-(2-methoxyphenyl)acetyl-9-phenyl-2,3,3a(S),4(R),9(R),9a(S)-hexahydro-1H-benzo[f]isoindol-3a-yl]carbonylglycine]	
2500	C=C(C(=O)N1C[C@H]2[C@@]3(c4ccccc4)CC[C@H](c4ccccc43)[C@@]2(C(=O)NC2CCSc3ccccc32)C1)c1ccccc1OC (stereo partly drawn) [Example 88, (3aS,4R,9R,9aS)-N-[(R,S)-4-benzo[b]thiopyranyl]-4,9-ethano-2-[(2-methoxyphenyl)prop-2-en-1-oyl]-9-phenyl-2,3,3a,4,9,9a-hexahydro-1H-benzo[f]isoindole-3a-carboxamide]	
5050	COc1ccccc1CC(=O)N1C[C@@H]2[C@]3(c4ccccc4)CC[C@@H](c4ccccc43)[C@]2(C(=O)NN)C1 (relative stereo) [Example 58, hydrazide of (3aRS,4SR,9SR,9aRS)-4,9-ethano-2-(2-methoxyphenyl)acetyl-9-phenyl-2,3,3a,4,9,9a-hexahydro-1H-benzo[f]isoindole-3a-carboxylic acid]	
	COc1ccccc1[C@H](C)C(=O)N1CC2C3(c4ccccc4)CCC(c4ccccc43)C2(C(=O)O)C1 (single isomer, unassigned) [Example 34]	590
1300	COc1ccccc1CC(=O)N1C[C@@H]2[C@]3(c4ccccc4)CC[C@@H](c4ccccc43)[C@]2(C(=O)NCCC(=O)O)C1 (relative stereo) [Example 50, N-[(3aRS,4SR,9SR,9aRS)-4,9-ethano-2-(2-methoxyphenyl)acetyl-9-phenyl-2,3,3a,4,9,9a-hexahydro-1H-benzo[f]isoindol-3a-yl]carbonyl-3-aminopropanoic acid]	
	CCOc1ccccc1CC(=O)N1C[C@H]2[C@@]3(c4ccccc4)CC[C@H](c4ccccc43)[C@@]2(C(=O)O)C1 (relative stereo) [Example 74, (3aRS,4SR,9SR,9aRS)-4,9-ethano-2-(2-ethoxyphenyl)acetyl-9-phenyl-2,3,3a,4,9,9a-hexahydro-1H-benzo[f]isoindole-3a-carboxylic acid]	190
5150	C=C(C(=O)N1C[C@H]2[C@@]3(c4ccccc4)CC[C@H](c4ccccc43)[C@@]2(C(=O)N[C@H](C)c2cccc3ccccc23)C1)c1ccccc1OC [Example 83, (3aS,4R,9R,9aS)-N-[(R)-1-(1-naphthyl)ethyl]-4,9-ethano-2-[(2-methoxyphenyl)prop-2-en-1-oyl]-9-phenyl-2,3,3a,4,9,9a-hexahydro-1H-benzo[f]isoindole-3a-carboxamide]	
5050	COc1ccccc1C(C(=O)N1C[C@@H]2[C@]3(c4ccccc4)CC[C@@H](c4ccccc43)[C@]2(C(=O)O)C1)=C(C)C (racemic) [Example 79, (3aRS,4SR,9SR,9aRS)-4,9-ethano-2-[2-(2-methoxyphenyl)-3-methyl-2-butenoyl]-9-phenyl-2,3,3a,4,9,9a-hexahydro-1H-benzo[f]isoindole-3a-carboxylic acid]	
1100	COc1ccccc1C1(C(=O)N2C[C@@H]3[C@]4(c5ccccc5)CC[C@@H](c5ccccc54)[C@]3(C(=O)O)C2)CC1 (racemic) [Example 41, (3aRS,4SR,9SR,9aRS)-4,9-ethano-2-[1-(2-methoxyphenyl)-cyclopropan-1-oyl]-9-phenyl-2,3,3a,4,9,9a-hexa-hydro-1H-benzo[f]isoindole-3a-carboxylic acid]	
4850	C=C(C(=O)N1C[C@H]2[C@@]3(c4ccccc4)CC[C@H](c4ccccc43)[C@@]2(C(=O)NC(C)(C)c2ccccc2)C1)c1ccccc1OC [Example 86, (3aS,4R,9R,9aS)-N-(2,2-dimethylbenzyl)-4,9-ethano-2[-(2-methoxyphenyl)prop-2-en-1-oyl]-9-phenyl-2,3,3a,4,9,9a-hexahydro-1H-benzo[f]isoindole-3a-carboxamide]	
8400	CONC(=O)[C@@]12CN(C(=O)Cc3ccccc3OC)C[C@@H]1[C@]1(c3ccccc3)CC[C@H]2c2ccccc21 (relative stereo) [Example 56, (3aRS,4SR,9SR,9aRS)-N-methoxy-4,9-ethano-2-(2-methoxyphenyl)acetyl-9-phenyl-2,3,3a,4,9,9a-hexahydro-1H-benzo[f]isoindole-3a-carboxamide]	

Structure (SMILES)	IC50 [1] [nM]	IC50 [nM]
CC(=O)Oc1ccccc1CC(=O)N1C[C@H]2[C@@]3(c4ccccc4)CC[C@H](c4ccccc43)[C@@]2(C(=O)O)C1 (relative stereo) [Example 29, (3aRS, 4SR, 9SR, 9aRS)-4,9-ethano-2-(2-acetoxyphenyl)acetyl-9-phenyl-2,3,3a,4,9,9a-hexahydro-1H-benzo[f]isoindole-3a-carboxylic acid]	2300	
